Laboratory results reported in patent publication US20240391954A1, “MC4R AGONIST PEPTIDES” (The Regents of the University of Michigan, priority 2021, published 2024).
Where two headings read alike, the source gives them in different places. Positions of bridges follow the written chain, without caps; N, C: chain ends. Non-standard residues stand in square brackets, D forms with d. Residues, ends and D or L forms follow the SMILES beside them. Phe(4-Br) = N[C@@H](Cc1ccc(Br)cc1)C(=O)O; dPhe(4-Br) = N[C@H](Cc1ccc(Br)cc1)C(=O)O; dPhe(4-I) = N[C@H](Cc1ccc(I)cc1)C(=O)O; d2Nal = N[C@H](Cc1ccc2ccccc2c1)C(=O)O; d(αMeF) = C[C@@](N)(Cc1ccccc1)C(=O)O; dNMeF = CN[C@H](Cc1ccccc1)C(=O)O; Cit = NC(=O)NCCC[C@H](N)C(=O)O; Nle = CCCC[C@H](N)C(=O)O

Tests used:
human MC3R = target: T1, human MC3R (Homo sapiens, UniProt P41968); assay: split-luciferase cAMP sensor assay, agonist mode (measurement window 1), hMC3R; type: cell-based; conditions: agonist mode, hMC3R stable cell line; for EC50: read-out: MC3R cAMP EC50; for Emax: read-out: MC3R cAMP % max activation
T1 construct: expressed in transfected cells; host or cells: HEK-293 cells stably expressing the GScAMP22F split-luciferase cAMP sensor (parent reporter line from Promega); MC3R clone generated in-house, G418 selection
Protocol: (§1) The stable cell lines were grown and maintained in selection media consisting of Dulbecco's modified Eagle media (DMEM) with 4.5 g/l D-glucose, and 4 mM L-glutamine (Thermo Fisher Scientific, Waltham, MA), supplemented with 10% fetal bovine serum, 100 units/ml penicillin, 100 μg/ml streptomycin, 2.5 μg/ml amphotericin B, 200 μg/ml hygromycin B (for positive selection of the GScAMP22f luciferase reporter), and Geneticin™ (G418) 700 μg/ml (for MC3R or MC4R selection). Actual serum concentration during the assay is estimated to be about 1%. Cell line identity is routinely verified by qPCR and MC3R-and MC4R-specific oligonucleotides.
(§2) The assay for the determination of the cAMP response in live cells was described previously. […] Cells were seeded at a density of 20,000 cells per well using 384-well poly-D lysine-coated, clear bottom, and black-wall assay plates (Corning Inc. Corning, NJ). Cells were allowed to attach to the plates for 18 to 24 h after which growth media was removed and 20 μl of 4% D-luciferin (Promega) in CO2 independent, serum-free medium (Thermo Fisher Scientific) was added to each well. […] Intracellular cAMP levels were measured using an FDSS 7000EX Functional Drug Screening System (Hamamatsu Photonics, Hamamatsu, Japan) in the Center for Chemical Genomics at the Life Sciences Institute. This instrument allowed the in-line addition of test-peptides and receptor agonists while simultaneously acquiring the luminescence signal from live cells. […] A submaximal forskolin (20 μM) concentration was also included to serve as a normalization reference to account for cell number variations and differences in assay transducer efficiency between cell lines.
(§3) With this set up it was possible to evaluate the direct effect of the test-peptides on the MC3R and MC4R cell lines during measurement window 1, while the antagonist profile in the presence of EC90 α-MSH was determined on measurement window 2. […] EC50 or IC50 potency values were determined by non-linear regression by fitting the data to a sigmoid four-parameter variable slope model using the GraphPad Prism version 8.4 software package (San Diego CA).

human MC4R = target: T2, human MC4R (Homo sapiens, UniProt P32245); assay: split-luciferase cAMP sensor assay, agonist mode (measurement window 1), hMC4R; type: cell-based; conditions: for Emax: read-out: MC4R cAMP % max activation; for EC50: read-out: MC4R cAMP EC50
T2 construct: host or cells: HEK-293 cells stably expressing the GScAMP22F split-luciferase cAMP sensor and hMC4R, G418 selection
Protocol: as §1, §2, §3

[1] = agonist mode, hMC4R stable cell line

T2 sequence (P32245 whole entry): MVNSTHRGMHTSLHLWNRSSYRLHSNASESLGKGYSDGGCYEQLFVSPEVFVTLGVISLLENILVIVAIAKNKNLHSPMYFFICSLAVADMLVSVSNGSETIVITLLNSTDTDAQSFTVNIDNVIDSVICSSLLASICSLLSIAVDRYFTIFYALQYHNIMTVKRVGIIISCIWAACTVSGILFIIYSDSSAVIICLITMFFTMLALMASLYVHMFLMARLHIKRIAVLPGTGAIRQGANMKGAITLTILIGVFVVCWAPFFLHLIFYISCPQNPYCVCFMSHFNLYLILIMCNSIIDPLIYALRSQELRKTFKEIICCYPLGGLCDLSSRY
T1 sequence (P41968 whole entry): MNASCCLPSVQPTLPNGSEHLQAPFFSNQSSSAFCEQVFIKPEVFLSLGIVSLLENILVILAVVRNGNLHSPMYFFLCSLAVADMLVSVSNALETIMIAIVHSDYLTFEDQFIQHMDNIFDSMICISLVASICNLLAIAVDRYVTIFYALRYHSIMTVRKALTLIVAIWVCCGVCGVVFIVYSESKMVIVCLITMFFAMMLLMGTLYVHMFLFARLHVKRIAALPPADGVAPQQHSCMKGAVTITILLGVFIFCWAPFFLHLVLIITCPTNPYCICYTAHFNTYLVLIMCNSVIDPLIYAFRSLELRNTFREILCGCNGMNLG

Row | SMILES | MC3R cAMP % max activation (human MC3R) | EC50 (human MC3R) | MC4R selectivity vs MC1R (human MC4R) | MC4R selectivity vs MC3R (human MC4R) | Emax (human MC4R; [1]) | EC50 (human MC4R; [1]) | Emax (human MC3R) | MC4R selectivity vs MC1R (human MC4R; cell printed in nM (see doubts)) | MC4R cAMP % max activation (human MC4R; [1])
1 | CC(=O)N[C@@H](CCCNC(=N)N)C(=O)N[C@H]1CSSC[C@@H](C(N)=O)NC(=O)[C@@H](Cc2c[nH]c3ccccc23)NC(=O)[C@H](CCCNC(=N)N)NC(=O)[C@@H](Cc2c[nH]c3ccccc23)NC(=O)[C@H](CCCNC(=N)N)NC(=O)[C@@H](C)NC1=O [CTX-1275, Arg-cyclo(Cys-D-Ala-Arg-D-Trp-Arg-D-Trp-Cys)] (Ac-RC[dA]R[dW]R[dW]C-NH2; disulfide 2-8 (inferred)) | (3.3%) | 248 nM | 0.22 | 0.27 | 24% | 906 nM | – | – | –
2 | CCCC[C@H](NC(=O)[C@H](CCCNC(=N)N)NC(C)=O)C(=O)N[C@H]1CSSC[C@@H](C(N)=O)NC(=O)[C@@H](Cc2c[nH]c3ccccc23)NC(=O)[C@H](CCCNC(=N)N)NC(=O)[C@@H](Cc2ccc(OC)cc2)NC(=O)[C@H](CCCNC(=N)N)NC1=O [CTX-1615, Arg-Nle-cyclo(Cys-Arg-D-Tyr(4-OMe)-Arg-D-Trp-Cys)] (Ac-R[Nle]CR[dY](Me)R[dW]C-NH2; disulfide 3-8) | – | 27 nM | 0.26 | 2.14 | 68% | 13 nM | 55% | – | –
3 | CCCC[C@H](NC(=O)[C@H](CCCNC(=N)N)NC(C)=O)C(=O)N[C@H]1CSSC[C@@H](C(N)=O)NC(=O)[C@@H](Cc2c[nH]c3ccccc23)NC(=O)[C@H](CCCNC(=N)N)NC(=O)[C@@H](Cc2ccc(Br)cc2)NC(=O)[C@H](Cc2c[nH]cn2)NC1=O [CTX-1231, Arg-Nle-cyclo(Cys-His-D-Phe(4-Br)-Arg-D-Trp-Cys)] (Ac-R[Nle]CH[dPhe(4-Br)]R[dW]C-NH2; disulfide 3-8 (inferred)) | – | – | 0.19 | 3.04 | 64% | 2.3 nM | 59% | – | –
4 | CCCC[C@H](NC(C)=O)C(=O)N[C@H]1CSSC[C@@H](C(N)=O)NC(=O)[C@@H](Cc2c[nH]c3ccccc23)NC(=O)[C@H](CCCNC(=N)N)NC(=O)[C@@H](Cc2ccc(I)cc2)NC(=O)[C@H](Cc2c[nH]cn2)NC1=O [CTX-1234, Nle-cyclo(Cys-His-D-Phe(4-I)-Arg-D-Trp-Cys)] (Ac-[Nle]CH[dPhe(4-I)]R[dW]C-NH2; disulfide 2-7 (inferred)) | – | – | 0.2 | 1.32 | 16% | 2.6 nM | 18% | – | –
5 | CC(=O)N[C@@H](CCCNC(=N)N)C(=O)N[C@H]1CSSC[C@@H](C(N)=O)NC(=O)[C@H](Cc2c[nH]c3ccccc23)NC(=O)[C@H](CCCNC(=N)N)NC(=O)[C@@H](Cc2ccc(Br)cc2)NC(=O)[C@@H]2CCCN2C(=O)[C@@H](C)NC1=O [CTX-2204, Arg-cyclo(Cys-D-Ala-Pro-D-Phe(4-Br)-Arg-Trp-Cys)] (Ac-RC[dA]P[dPhe(4-Br)]RWC-NH2; disulfide 2-8 (inferred)) | – | 11 nM | – | 0.19 | 13% | – | 0.2% | – | –
6 | CC(=O)N[C@@H](CCCNC(=N)N)C(=O)N[C@H]1CSSC[C@@H](C(=O)N[C@@H](CCCNC(=N)N)C(=O)N[C@H](Cc2ccccc2)C(N)=O)NC(=O)[C@@H](Cc2c[nH]c3ccccc23)NC(=O)[C@H](CCCNC(=N)N)NC(=O)[C@@H](Cc2ccc(Br)cc2)NC(=O)[C@H](CCCNC(=N)N)NC(=O)[C@@H](C)NC1=O [CTX-1222, Arg-cyclo(Cys-D-Ala-Arg-D-Phe(4-Br)-Arg-D-Trp-Cys)-Arg-D-Phe] (Ac-RC[dA]R[dPhe(4-Br)]R[dW]CR[dF]-NH2; disulfide 2-8 (inferred)) | – | – | 0.1 | 0.33 | 79% | – | 38% | – | –
7 | CCCC[C@H](NC(=O)[C@H](CCCNC(=N)N)NC(C)=O)C(=O)N[C@H]1CSSC[C@@H](C(N)=O)NC(=O)[C@H](Cc2c[nH]c3ccccc23)NC(=O)[C@H](CCCNC(=N)N)NC(=O)[C@@H](Cc2ccc(Br)cc2)NC(=O)[C@H](Cc2c[nH]cn2)NC1=O [CTX-1229, Arg-Nle-cyclo(Cys-His-D-Phe(4-Br)-Arg-Trp-Cys)] (Ac-R[Nle]CH[dPhe(4-Br)]RWC-NH2; disulfide 3-8 (inferred)) | – | 3.5 nM | – | – | 31% | – | 16% | 18 nM | –
8 | CC(=O)N[C@@H](CCCNC(=N)N)C(=O)N[C@H]1CSSC[C@@H](C(N)=O)NC(=O)[C@@H](Cc2ccc3ccccc3c2)NC(=O)[C@H](CCCNC(=N)N)NC(=O)[C@@H](Cc2ccc(Br)cc2)NC(=O)[C@H](CCCNC(=N)N)NC(=O)[C@@H](C)NC1=O [CTX-1254, Arg-cyclo(Cys-D-Ala-Arg-D-Phe(4-Br)-Arg-D-Nal(2′)-Cys)] (Ac-RC[dA]R[dPhe(4-Br)]R[d2Nal]C-NH2; disulfide 2-8) | – | – | 0.26 | 2.19 | 22% | – | 5.5% | – | –
9 | CC(=O)N[C@@H](CCCNC(=N)N)C(=O)N[C@H]1CSSC[C@@H](C(N)=O)NC(=O)[C@@H](Cc2c[nH]c3ccccc23)NC(=O)[C@H](CCCNC(=N)N)NC(=O)[C@H](Cc2ccc(Br)cc2)NC(=O)[C@H](CCCNC(=N)N)NC(=O)[C@@H](C)NC1=O [CTX-1215, Arg-cyclo(Cys-D-Ala-Arg-Phe(4-Br)-Arg-D-Trp-Cys)] (Ac-RC[dA]R[Phe(4-Br)]R[dW]C-NH2; disulfide 2-8 (inferred)) | – | 27 nM | 0.07 | 0.05 | 56% | – | 2.1% | – | –
10 | CC(=O)N[C@@H](CCCNC(=N)N)C(=O)N[C@H]1CSSC[C@@H](C(N)=O)NC(=O)[C@@H](Cc2c[nH]c3ccccc23)NC(=O)[C@H](CCCNC(=N)N)NC(=O)[C@@](C)(Cc2ccccc2)NC(=O)[C@H](CCCNC(=N)N)NC(=O)[C@@H](C)NC1=O [CTX-1240, Arg-cyclo(Cys-D-Ala-Arg-aMe-D-Phe-Arg-D-Trp-Cys)] (Ac-RC[dA]R[d(αMeF)]R[dW]C-NH2; disulfide 2-8) | (27%) | – | 0.46 | 0.41 | – | – | – | – | (81%)
11 | CC(=O)N[C@@H](CCCNC(=N)N)C(=O)N[C@H]1CSSC[C@@H](C(N)=O)NC(=O)[C@@H](Cc2c[nH]c3ccccc23)NC(=O)[C@H](CCCNC(N)=O)NC(=O)[C@@H](Cc2ccc(Br)cc2)NC(=O)[C@H](CCCNC(=N)N)NC(=O)[C@@H](C)NC1=O [CTX-1253, Arg-cyclo(Cys-D-Ala-Arg-D-Phe(4-Br)-Cit-D-Trp-Cys)] (Ac-RC[dA]R[dPhe(4-Br)][Cit][dW]C-NH2; disulfide 2-8 (inferred)) | – | 4 nM | 0.57 | 0.53 | 58% | – | 9.2% | – | –
12 | CCCC[C@H](NC(=O)[C@H](CCCNC(=N)N)NC(C)=O)C(=O)N[C@H]1CSSC[C@@H](C(N)=O)NC(=O)[C@@H](Cc2c[nH]c3ccccc23)NC(=O)[C@H](CCCNC(=N)N)NC(=O)[C@@H](Cc2ccc(Br)cc2)NC(=O)[C@H](CCCNC(=N)N)NC1=O [CTX-1613, Arg-Nle-cyclo(Cys-Arg-D-Phe(4-Br)-Arg-D-Trp-Cys)] (Ac-R[Nle]CR[dPhe(4-Br)]R[dW]C-NH2; disulfide 3-8 (inferred)) | – | 4 nM | 0.79 | 2.1 | 32% | 1.9 nM | 35% | – | –
13 | CC(=O)N[C@@H](CCCNC(=N)N)C(=O)N[C@H]1CSSC[C@@H](C(=O)N[C@@H](CCCNC(=N)N)C(=O)N[C@@H](Cc2ccccc2)C(=O)NCC(=O)O)NC(=O)[C@@H](Cc2c[nH]c3ccccc23)NC(=O)[C@H](CCCNC(=N)N)NC(=O)[C@@H](Cc2ccc(Br)cc2)NC(=O)[C@H](CCCNC(=N)N)NC(=O)[C@@H](C)NC1=O [CTX-1219] (Ac-RC[dA]R[dPhe(4-Br)]R[dW]CRFG-OH; disulfide 2-8 (inferred)) | – | 4.5 nM | 1 | 1.99 | 76% | 2.3 nM | 20% | – | –
14 | CC(=O)N[C@@H](CCCNC(=N)N)C(=O)N[C@H]1CSSC[C@@H](C(N)=O)NC(=O)[C@@H](Cc2c[nH]c3ccccc23)NC(=O)[C@H](CCCNC(=N)N)NC(=O)[C@@H](Cc2ccccc2)N(C)C(=O)[C@H](CCCNC(=N)N)NC(=O)[C@@H](C)NC1=O [CTX-1272, Arg-cyclo(Cys-D-Ala-Arg-NMe-D-Phe-Arg-D-Trp-Cys)] (Ac-RC[dA]R[dNMeF]R[dW]C-NH2; disulfide 2-8 (inferred)) | – | – | 0.21 | 0.9 | 5.3% | – | 0.9% | – | –
